Reference: patent US5670538A, “Use of prodelphinidins for obtaining medicaments intended for the treatment of arthrosis” (Laboratoires Dolisos, priority 1992, dated 1997)
Like-named read-outs stand apart in the source and are kept apart here.

What was measured:
[1] = test system: polymorphonuclear cells (PMNs); assay: Production of the superoxide anion by the polymorphonuclear cells (PMNs), reduction of ferricytochrome C; format: cell-based; details: 0.032 mM; phorbol myristate acetate; no conclusion possible on superoxide inhibition
Description: 10. Production of the superoxide anion (O°^2) by the polymorphonuclear cells (PMNs).
This is measured with a double beam spectrophotometer which allows the reduction of ferricytochrome C by O°2 tc be monitored. The incubation medium (2.5 ml) is constituted by PBS buffer containing glucose (7.5 mM), ferricytochrome C (0.956 mM), CaCl2 (2.3 mM), MgCl2 (1.1 mM), 7.5.10^6 of cells and the substance to be tested at a concentration of 0.032 mM. The reaction is triggered by adding phorbol myristate acetate at a final concentration of 0.012 mM and the reduction of the cytochrome C is monitored at 550 nm for 10 minutes. The reference cell contains the same material as that described above with an additional 48 μg of superoxide dismutase (SOD)/ml of medium.

[2] = test system: human articular chondrocytes; assay: Radioimmunoassay of cartilaginous proteoglycans (PG) produced in tridimensional culture of human chondrocytes; format: cell-based; details: for PG in the clusters over 12 days: 0-12 days
Excerpt: The model used for testing the proanthocyanidols, namely the tridimensional culture of human chondrocytes allows chondrorepair to be quantified by the production of matrix substances: type II collagen, proteoglycans, and chondroresorption by the reduction in the levels of prostaglandin E2 and of OH° and O°2 type free radicals produced.
1. Tridimensional culture of human chondrocytes
The technique used has been described in detail (Bassleer et al., 1986).
Briefly, human articular chondrocytes are cultivated in DMEM (Dulbecco's Modification of Eagle's Medium--ICN--Gand, Belgium) with either Ultroser G 1% (GIBCO, Gand, Belgium) or 10% of foetal calf serum (ICN--Gand--Belgium), and 50 μg of ascorbic acid/ml added to it. The cartilage originates from the apparently normal zone of heads of human femur suffering from arthrosis, immediately after an operation carried out to insert a total hip prosthesis; it can also originate from the head of a healthy femur, but which has undergone a traumatism and has had to be replaced. This cartilage is then digested by clostridial collagenase 1 mg/ml (Boehringer-Mannheim, Germany) in a buffer (NaCl 120 mM, CaCl2 1 mM, KCl 5 mM, KH2 PO4 1 mM, NaHCO3 25 mM, glucose 2 mM and Hepes 30 mM, pH 7.4) for 24 hours. After 6 successive washings and centrifugations, the chondrocytes, isolated from their matrix, are cultured in flasks (10^6 cells/2 ml of culture medium) placed on a gyrator (10 rpm). The cultures are kept at 37° C. in an atmosphere of air 95%-CO2 5% (Bassleer et al., 1986). Cultivated under these conditions, after 4 to 5 days the chondrocytes form a tridimensional cluster in each flask. These clusters, which at first have a flocculent appearance, then tend to condense during the culture. After two weeks, their diameter is, in general, from 1 to 2 mm.
The fresh weight of the clusters increases with the duration of the culture, above all during the few first days.
2. Radioimmunoassay of cartilaginous proteoglycans (PG)
The PGs are measured with a radioimmunoassay (RIA) which is specific and sensitive to human cartilaginous PGs (Gysen et al. 1984). The PGs were extracted from human cartilage, according to the methods described by Roughley et al., (1981) and by Bayliss and Venn (1980). The antiserum against the cartilaginous PGs was obtained from the rabbit according to the technique of Vaitukaitis et al. (1971). The radioimmunoassay is carried out in a 0.4 ml volume consisting of 0.1 ml of tracer solution (15000 to 20000 cpm ^125 I-PG, labelled by the chloramine T method (Greenwood, 1973). 0.1 ml of anti-PG antiserum diluted to 1/5000 in phosphate-buffered saline (PBS-50 mM PO4, 150 mM NaCl ), containing BSA (5 g/l bovine serum albumin and 6.7 mM sodium azide) (incubation buffer) and 0.2 ml of several dilutions of the culture medium or of the cluster extract or also of the antigen (0.5 -500 ng/tube).
After four days at 4° C., the free PGs* (radioactive PGs) are separated from the PG*-antibody complexes by double precipitation (Franchimont et al., 1983).
The sensitivity of the assay is 0.6 ng/tube. The accuracy of measurement is of the order of 4%. The coefficients of the intra- and inter assay variation are less than 10% and 20% respectively.
The antibodies are directed against the antigenic determinants of the central protein of PG. There is a complete crossed reaction with human PGs of cartilage from the ribs, vertebral disks and trachea, even with PGs extracted from veins or arteries. There is no cross reaction with glycosaminoglycans or with PGs extracted from foetal tissues or the small PGs from bone.
The PGs are measured directly in the culture medium. As for the chondrocyte clusters, they are washed 3 times in a phosphate-buffered saline (PBS-50 mM PO4, 150 mM NaCl pH 7.4) containing protease inhibitors (Oegema et al., 1975:100 mM 6-aminohexanoic acid, 10 mM EDTA, 50 mM benzamidine hydrochloride, 5.10^-8 M trypsin inhibitor, 6.7 mM sodium azide and 200 U/ml superoxide dismutase). […]

For `Oc1cc(O)c2c(c1)O[C@H](c1cc(O)c(O)c(O)c1)[C@@H](O)[C@@H]2c1c(O)cc(O)c2c1O[C@H](c1cc(O)c(O)c(O)c1)[C@H](O)C2` [Substance Ia, GC-(4 alpha→8) EGC], the “Reduction of ferricytochrome C by PMNs” value [1] was “strongly reduced”, the “PG in the clusters over 12 days” value ([2]; 1% Ultroser G, 1 μg/ml) was 912 ± 83.6 ng/μg DNA and the “PG in the clusters over 12 days” value ([2]; 1% Ultroser G, 10 μg/ml) was 1411 ± 153 ng/μg DNA. For the same molecule, the “PG in the clusters over 12 days” value ([2]; 1% Ultroser G, 100 μg/ml) was 2105 ± 42 ng/μg DNA, the “PGs released in the culture medium” value ([2]; 1% Ultroser G, culture time 0-4 days, 1 μg/ml) was 14.2 ± 1.6 μg/μg DNA/96 h and the “PGs released in the culture medium” value ([2]; 1% Ultroser G, culture time 0-4 days, 10 μg/ml) was 22.4 ± 0.2 μg/μg DNA/96 h. For the same molecule, the “PGs released in the culture medium” value ([2]; 1% Ultroser G, culture time 0-4 days, 100 μg/ml) was 28.6 ± 2.85 μg/μg DNA/96 h, the “PGs released in the culture medium” value ([2]; 1% Ultroser G, culture time 4-8 days, 1 μg/ml) was 1.74 ± 0.18 μg/μg DNA/96 h and the “PGs released in the culture medium” value ([2]; 1% Ultroser G, culture time 4-8 days, 10 μg/ml) was 3.26 ± 0.12 μg/μg DNA/96 h. For the same molecule, the “PGs released in the culture medium” value ([2]; 1% Ultroser G, culture time 4-8 days, 100 μg/ml) was 3.94 ± 0.1 μg/μg DNA/96 h, the “PGs released in the culture medium” value ([2]; 1% Ultroser G, culture time 8-12 days, 1 μg/ml) was 0.44 ± 0.04 μg/μg DNA/96 h and the “PGs released in the culture medium” value ([2]; 1% Ultroser G, culture time 8-12 days, 10 μg/ml) was 0.74 ± 0.18 μg/μg DNA/96 h. For the same molecule, the “PGs released in the culture medium” value ([2]; 1% Ultroser G, culture time 8-12 days, 100 μg/ml) was 0.78 ± 0.02 μg/μg DNA/96 h, the “Proteoglycans released during the 12 days of culture, Abs” value ([2]; 1% Ultroser G, cumulative, 1 μg/ml) was 16.4 μg/μg DNA/12 days and the “Proteoglycans released during the 12 days of culture, Abs” value ([2]; 1% Ultroser G, cumulative, 10 μg/ml) was 26.4 μg/μg DNA/12 days. For the same molecule, the “Proteoglycans released during the 12 days of culture, Abs” value ([2]; 1% Ultroser G, cumulative, 100 μg/ml) was 33.3 μg/μg DNA/12 days, the “Concentrations of PG in the clusters, effect in words” value ([2]; 1% Ultroser G, three concentrations studied) was “significantly stimulated and in a dose-dependent way” and the activity at 1 µg/mL ([2]; Homo sapiens, Chondrocyte, 288 h, 1% Ultroser G, cumulative, 1 μg/ml, control = 100, read-out: Proteoglycans released during the 12 days of culture, %) was 103%. It also gave an activity at 10 µg/mL ([2]; Homo sapiens, Chondrocyte, 288 h, 1% Ultroser G, cumulative, 10 μg/ml, control = 100, read-out: Proteoglycans released during the 12 days of culture, %) of 165%, an activity at 100 µg/mL ([2]; Homo sapiens, Chondrocyte, 288 h, 1% Ultroser G, cumulative, 100 μg/ml, control = 100, read-out: Proteoglycans released during the 12 days of culture, %) of 208% and an activity at 10 µg/mL ([2]; Homo sapiens, Chondrocyte, foetal calf serum, Table 14, 0-4 days, 10 μg/ml, control = 100%, read-out: PG in the culture medium, % of control) of 118%. For the same molecule, the activity at 100 µg/mL ([2]; Homo sapiens, Chondrocyte, foetal calf serum, Table 14, 0-4 days, 100 μg/ml, control = 100%, read-out: PG in the culture medium, % of control) was 147%, the activity at 10 µg/mL ([2]; Homo sapiens, Chondrocyte, foetal calf serum, Table 14, 4-8 days, 10 μg/ml, control = 100%, read-out: PG in the culture medium, % of control) was 119% and the activity at 100 µg/mL ([2]; Homo sapiens, Chondrocyte, foetal calf serum, Table 14, 4-8 days, 100 μg/ml, control = 100%, read-out: PG in the culture medium, % of control) was 135%. The activity at 10 µg/mL ([2]; Homo sapiens, Chondrocyte, foetal calf serum, Table 15, 0-4 days, 10 μg/ml, control = 100%, read-out: PG in the culture medium, % of control) was 131%, the activity at 100 µg/mL ([2]; Homo sapiens, Chondrocyte, foetal calf serum, Table 15, 0-4 days, 100 μg/ml, control = 100%, read-out: PG in the culture medium, % of control) was 166% and the activity at 10 µg/mL ([2]; Homo sapiens, Chondrocyte, foetal calf serum, Table 15, 4-8 days, 10 μg/ml, control = 100%, read-out: PG in the culture medium, % of control) was 123%. It also gave an activity at 100 µg/mL ([2]; Homo sapiens, Chondrocyte, foetal calf serum, Table 15, 4-8 days, 100 μg/ml, control = 100%, read-out: PG in the culture medium, % of control) of 138%, an activity at 10 µg/mL ([2]; Homo sapiens, Chondrocyte, foetal calf serum, Table 16, 0-8 days, 10 μg/ml, control = 100%, read-out: PG in the clusters over 8 days, % of control) of 128% and an activity at 100 µg/mL ([2]; Homo sapiens, Chondrocyte, foetal calf serum, Table 16, 0-8 days, 100 μg/ml, control = 100%, read-out: PG in the clusters over 8 days, % of control) of 158%. For the same molecule, the activity at 10 µg/mL ([2]; Homo sapiens, Chondrocyte, foetal calf serum, Table 17, 0-8 days, 10 μg/ml, control = 100%, read-out: PG in the clusters over 8 days, % of control) was 120%, the activity at 100 µg/mL ([2]; Homo sapiens, Chondrocyte, foetal calf serum, Table 17, 0-8 days, 100 μg/ml, control = 100%, read-out: PG in the clusters over 8 days, % of control) was 144% and the “PGs in the clusters, effect in words” value ([2]; foetal calf serum, 10 and 100 μg/ml) was “significantly increased”. The “PG in the culture medium” value ([2]; foetal calf serum, Table 14, 0-4 days, 10 μg/ml) was 7.7 ± 0.49 μg/μg DNA - 96 H, the “PG in the culture medium” value ([2]; foetal calf serum, Table 14, 0-4 days, 100 μg/ml) was 9.5 ± 1.34 μg/μg DNA - 96 H and the “PG in the culture medium” value ([2]; foetal calf serum, Table 14, 4-8 days, 10 μg/ml) was 2.37 ± 0.17 μg/μg DNA - 96 H. The “PG in the culture medium” value ([2]; foetal calf serum, Table 14, 4-8 days, 100 μg/ml) was 2.69 ± 0.15 μg/μg DNA - 96 H, the “PG in the culture medium” value ([2]; foetal calf serum, Table 15, 0-4 days, 10 μg/ml) was 6.9 ± 0.99 μg/μg DNA - 96 H and the “PG in the culture medium” value ([2]; foetal calf serum, Table 15, 0-4 days, 100 μg/ml) was 8.8 ± 1.49 μg/μg DNA - 96 H. For the same molecule, the “PG in the culture medium” value ([2]; foetal calf serum, Table 15, 4-8 days, 10 μg/ml) was 2.1 ± 0.21 μg/μg DNA - 96 H, the “PG in the culture medium” value ([2]; foetal calf serum, Table 15, 4-8 days, 100 μg/ml) was 2.4 ± 0.09 μg/μg DNA - 96 H and the “PG in the clusters over 8 days” value ([2]; foetal calf serum, Table 16, 0-8 days, 10 μg/ml) was 1004 ± 56 ng/μg DNA. For the same molecule, the “PG in the clusters over 8 days” value ([2]; foetal calf serum, Table 16, 0-8 days, 100 μg/ml) was 1242 ± 208 ng/μg DNA, the “PG in the clusters over 8 days” value ([2]; foetal calf serum, Table 17, 0-8 days, 10 μg/ml) was 688.8 ± 40.65 ng/μg DNA and the “PG in the clusters over 8 days” value ([2]; foetal calf serum, Table 17, 0-8 days, 100 μg/ml) was 829.4 ± 9.37 ng/μg DNA.
